Test results from DBAASP.
≈ marks a conversion by molar mass, not a printed value.

Key:
Assay in all cases: ≥ marks a high value that may be exact or a test limit, other limits are often not marked, values filed in µg/mL are converted to µM
[1] = test system: Staphylococcus aureus NCTC 8325
[2] = test system: Escherichia coli ATCC 25922
[3] = test system: Bacillus subtilis ATCC 6633
[4] = test system: Staphylococcus epidermidis ATCC 12228
[5] = test system: Pseudomonas aeruginosa ATCC 27853
[6] = test system: Klebsiella pneumoniae ATCC 700603
[7] = test system: Staphylococcus aureus ATCC 25923
Escherichia coli UB1005 = test system: Escherichia coli UB1005
[8] = test system: Staphylococcus aureus ATCC 43300
[9] = test system: Salmonella enterica subsp. enterica serovar Typhimurium C77-31
[10] = test system: Staphylococcus aureus ATCC 29213
[11] = test system: Salmonella enterica subsp. enterica serovar Typhimurium ATCC 14028
[12] = test system: Pseudomonas aeruginosa KCTC 1637
[13] = test system: Bacillus subtilis KCTC 3068
[14] = test system: Salmonella typhimurium KCTC 1926
[15] = test system: Staphylococcus epidermidis KCTC 1917
[16] = test system: Staphylococcus aureus KCTC 1621
[17] = test system: Escherichia coli KCTC 1682
Candida albicans = test system: Candida albicans
Staphylococcus aureus = test system: Staphylococcus aureus
Escherichia coli = test system: Escherichia coli

Row | MIC [1] | MIC [2] | MIC [12] | MIC [13] | MIC [14] | MIC [15] | MIC [16] | MIC [17] | SMILES | also measured
1 | 13 µM (≈ 33.9 µg/mL) |  |  |  |  |  |  |  | CC[C@H](C)[C@@H]1NC(=O)[C@H](C)NC(=O)[C@@H](NC(=O)[C@H](Cc2ccccc2)NC(=O)[C@@H](NC(=O)[C@H](CCCCN)NC(=O)[C@@H]2CCCN2C(=O)[C@H](CC(C)C)NC(=O)[C@H](Cc2ccccc2)NC(=O)[C@H](CCCCN)NC(=O)[C@H](C)NC(=O)[C@H](C)NC(=O)[C@@H](NC(=O)CNC(=O)[C@H](C)NC(=O)[C@@H](NC(=O)[C@H](Cc2ccccc2)NC(=O)[C@@H]2CCCN2C(=O)[C@H](CC(C)C)NC(=O)[C@@H](N)Cc2ccccc2)[C@@H](C)CC)C(C)C)[C@@H](C)CC)CSSC[C@@H](C(=O)O)NC(=O)[C@H](CCCCN)NC(=O)[C@H](CCCCN)NC(=O)[C@H](CO)NC1=O [FLPFIAGVAAKFLPKIFCAISKKC] | 
2 |  | 12.5 µM (≈ 25.4 µg/mL) |  |  |  |  |  |  | CC(=O)N[C@@H](Cc1ccccc1)C(=O)N[C@@H](CCCCN)C(=O)N[C@@H](CC(C)C)C(=O)N[C@@H](CCCCN)C(=O)N[C@@H](CC(C)C)C(=O)N[C@@H](CCCCN)C(=O)N[C@@H](Cc1ccccc1)C(=O)N[C@@H](CO)C(=O)N[C@@H](CC(N)=O)C(=O)N[C@@H](CCCCN)C(=O)N[C@@H](CC(C)C)C(=O)N[C@@H](CCCCN)C(=O)N[C@@H](Cc1c[nH]c2ccccc12)C(=O)N[C@@H](CCCCN)C(=O)N[C@@H](Cc1c[nH]c2ccccc12)C(N)=O [FKLKLKFSNKLKWKW] | MIC [3]: 3.2 µM (≈ 6.51 µg/mL); MIC [4]: 12.5 µM (≈ 25.4 µg/mL); MIC [5]: 12.5 µM (≈ 25.4 µg/mL); MIC [6]: 25 µM (≈ 50.9 µg/mL); MIC [7]: 25 µM (≈ 50.9 µg/mL)
3 | 12.5 µM (≈ 33.1 µg/mL) | 25 µM (≈ 66.2 µg/mL) |  |  |  |  |  |  | CC[C@H](C)[C@H](NC(=O)[C@H](CCCCN)NC(=O)[C@@H]1CCCN1C(=O)[C@H](CC(C)C)NC(=O)[C@H](Cc1ccccc1)NC(=O)[C@H](CC(N)=O)NC(=O)[C@H](C)NC(=O)[C@H](C)NC(=O)[C@H](CC(C)C)NC(=O)CNC(=O)[C@H](C)NC(=O)[C@H](CC(C)C)NC(=O)[C@H](CC(C)C)NC(=O)[C@@H]1CCCN1C(=O)[C@H](CC(C)C)NC(=O)[C@@H](N)Cc1ccccc1)C(=O)N[C@@H](Cc1ccccc1)C(=O)N[C@H]1CSSC[C@@H](C(=O)O)NC(=O)[C@H](CCCCN)NC(=O)[C@H](CCCCN)NC(=O)[C@H]([C@@H](C)O)NC(=O)[C@H]([C@@H](C)CC)NC(=O)[C@H](CCCCN)NC1=O [FLPLLAGLAANFLPKIFCKITKKC] | 
4 |  |  | 4 µM (≈ 8.82 µg/mL) | 4 µM (≈ 8.82 µg/mL) | 2 µM (≈ 4.41 µg/mL) | 8 µM (≈ 17.6 µg/mL) | 4 µM (≈ 8.82 µg/mL) | 4 µM (≈ 8.82 µg/mL) | CC[C@H](C)[C@H](NC(=O)[C@H](CCCN=C(N)N)NC(=O)CN)C(=O)N[C@@H](CCCCN)C(=O)N[C@@H](CCCN=C(N)N)C(=O)N[C@H](C(=O)N[C@@H](CCCN=C(N)N)C(=O)N[C@@H](CCCCN)C(=O)N[C@@H](CCCCN)C(=O)N[C@H](C(=O)N[C@@H](CCCCN)C(=O)N[C@@H](CCCCN)C(=O)N[C@@H](CC(C)C)C(=O)N[C@H](C(=O)N[C@@H](CCCCN)C(=O)N[C@@H](CCCCN)C(=O)N[C@@H](CC(C)C)C(=O)N[C@@H](CO)C(N)=O)[C@@H](C)CC)[C@@H](C)CC)[C@@H](C)CC [GRIKRIRKKIKKLIKKLS] | 
5 |  |  | 16 µM (≈ 38 µg/mL) | 4 µM (≈ 9.5 µg/mL) | 8 µM (≈ 19 µg/mL) | 4 µM (≈ 9.5 µg/mL) | 4 µM (≈ 9.5 µg/mL) | 8 µM (≈ 19 µg/mL) | CC[C@H](C)[C@H](N)C(=O)NCC(=O)N[C@@H](CCCCN)C(=O)N[C@@H](CCC(=O)O)C(=O)N[C@@H](Cc1ccccc1)C(=O)N[C@@H](CCCCN)C(=O)N[C@@H](CCCN=C(N)N)C(=O)N[C@H](C(=O)N[C@H](C(=O)N[C@@H](CCC(N)=O)C(=O)N[C@@H](CCCN=C(N)N)C(=O)N[C@H](C(=O)N[C@@H](CCCCN)C(=O)N[C@@H](CC(=O)O)C(=O)N[C@@H](Cc1ccccc1)C(=O)N[C@@H](CC(C)C)C(=O)N[C@@H](CCCN=C(N)N)C(=O)N[C@@H](CC(N)=O)C(=O)N[C@@H](CC(C)C)C(=O)O)[C@@H](C)CC)C(C)C)[C@@H](C)CC [IGKEFKRIVQRIKDFLRNL] | 
6 | 25 µM (≈ 39.4 µg/mL) |  |  |  |  |  |  |  | CC[C@H](C)[C@H](NC(=O)[C@@H](NC(=O)[C@@H]1CCCN1C(=O)[C@H](CC(C)C)NC(=O)[C@@H](NC(=O)[C@@H](N)CO)[C@@H](C)CC)[C@@H](C)O)C(=O)N[C@H](C(=O)N[C@@H](CO)C(=O)N[C@@H](Cc1ccccc1)C(=O)N[C@@H](CC(C)C)C(=O)N[C@H](C(=O)N[C@@H](CCCCN)C(=O)N[C@@H](Cc1ccccc1)C(=O)N[C@@H](CC(C)C)C(N)=O)[C@@H](C)O)C(C)C [SILPTIVSFLTKFL] | 

Second part, the molecule before the results:

Row | SMILES | MIC [1] | MIC [2] | MIC [12] | MIC [13] | MIC [14] | MIC [15] | MIC [16] | MIC [17] | also measured
7 | CC[C@H](C)[C@H](NC(=O)CNC(=O)[C@H](C)NC(=O)[C@@H](NC(=O)[C@H](CC(=O)O)NC(=O)[C@H](CCCCN)NC(=O)[C@H](C)NC(=O)[C@H](C)NC(=O)CNC(=O)[C@H](CCCCN)NC(=O)[C@H](CC(C)C)NC(=O)[C@@H](NC(=O)[C@H](CC(=O)O)NC(=O)[C@H](CC(C)C)NC(=O)[C@H](CC(C)C)NC(=O)[C@H](CC(C)C)NC(=O)CN)[C@@H](C)O)[C@@H](C)CC)C(=O)N[C@@H](C)C(=O)N[C@@H](CC(C)C)C(=O)N[C@@H](CCC(=O)O)C(=O)N[C@@H](CCCCN)C(=O)N[C@@H](CC(C)C)C(=O)N[C@@H](CCCCN)C(=O)N[C@H]1CSSC[C@@H](C(=O)N[C@@H](CCCCN)C(=O)N2CCC[C@H]2C(=O)O)NC(=O)CNC(=O)[C@H]([C@@H](C)O)NC(=O)[C@H]([C@@H](C)CC)NC(=O)[C@H](CCCCN)NC1=O [GLLLDTLKGAAKDIAGIALEKLKCKITGCKP] | ≥ 150 µM | 19 µM (≈ 60.4 µg/mL) |  |  |  |  |  |  | 
8 | CC[C@H](C)[C@H](N)C(=O)N[C@@H](CCCN=C(N)N)C(=O)N1CCC[C@H]1C(=O)N[C@H](C(=O)N[C@@H](CCCN=C(N)N)C(=O)N1CCC[C@H]1C(=O)O)[C@@H](C)CC [IRPIRP] |  | > 128 µM |  |  |  |  |  |  | MIC (Escherichia coli UB1005): ≥ 128 µM; MIC [8]: > 128 µM; MIC [4]: > 128 µM; MIC [5]: > 128 µM; MIC [9]: ≥ 128 µM; MIC [7]: > 128 µM; MIC [10]: > 128 µM; MIC [11]: > 128 µM
9 | CC[C@H](C)[C@H](NC(=O)[C@H](CCCCN)NC(=O)[C@H](CS)NC(=O)[C@H](C)NC(=O)[C@@H](NC(=O)[C@H](Cc1ccccc1)NC(=O)[C@H](CCC(=O)O)NC(=O)[C@H](CC(C)C)NC(=O)[C@H](CCC(=O)O)NC(=O)[C@@H](NC(=O)[C@H](CCCCN)NC(=O)[C@H](CCC(=O)O)NC(=O)[C@H](CC(C)C)NC(=O)[C@H](CC(N)=O)NC(=O)[C@H](CCCCN)NC(=O)[C@H](CC(C)C)NC(=O)[C@@H](NC(=O)[C@H](CO)NC(=O)[C@H](CC(C)C)NC(=O)[C@H](CCSC)NC(=O)[C@@H](N)CO)C(C)C)C(C)C)C(C)C)C(=O)N[C@@H](CC(N)=O)C(=O)N[C@@H](CCCCN)C(=O)N[C@@H](CCC(N)=O)C(=O)N[C@@H](CS)C(=O)O [SMLSVLKNLEKVELEFVACKINKQC] |  |  |  |  |  |  |  |  | MIC (Candida albicans): > 200 µM; MIC (Staphylococcus aureus): > 200 µM; MIC (Escherichia coli): > 200 µM
10 | CC(C)C[C@H](NC(=O)[C@H](CCCCN)NC(=O)[C@H](CCCCN)NC(=O)[C@H](Cc1c[nH]c2ccccc12)NC(=O)[C@H](CC(C)C)NC(=O)[C@H](CCCCN)NC(=O)[C@H](CCCCN)NC(=O)[C@H](Cc1c[nH]c2ccccc12)NC(=O)[C@H](CCCCN)NC(=O)[C@H](CCCCN)NC(=O)[C@H](CCCN=C(N)N)NC(=O)[C@H](Cc1c[nH]c2ccccc12)NC(=O)[C@H](CCCN=C(N)N)NC(=O)[C@H](CCCCN)NC(=O)[C@H](Cc1c[nH]c2ccccc12)NC(=O)[C@H](CCCN=C(N)N)NC(=O)CN)C(=O)N[C@@H](CO)C(N)=O [GRWKRWRKKWKKLWKKLS] |  |  | 4 µM (≈ 9.99 µg/mL) | 2 µM (≈ 5 µg/mL) | 2 µM (≈ 5 µg/mL) | 8 µM (≈ 20 µg/mL) | 4 µM (≈ 9.99 µg/mL) | 4 µM (≈ 9.99 µg/mL) | 
11 | CC[C@H](C)[C@H](NC(=O)[C@H](CCCN=C(N)N)NC(=O)[C@H](CCCN=C(N)N)NC(=O)[C@H](CC(C)C)NC(=O)[C@@H](N)CCCN=C(N)N)C(=O)N[C@@H](Cc1c[nH]c2ccccc12)C(=O)N[C@@H](Cc1c[nH]c2ccccc12)C(=O)N[C@H](C(=O)N[C@@H](CCCN=C(N)N)C(=O)N[C@H](C(=O)N[C@@H](CCCN=C(N)N)C(=O)N[C@@H](CCCN=C(N)N)C(N)=O)C(C)C)[C@@H](C)CC [RLRRIWWIRVRR] |  |  | 3.54 µM (≈ 6.25 µg/mL) | 7.08 µM (≈ 12.5 µg/mL) | 1.77 µM (≈ 3.13 µg/mL) | 3.54 µM (≈ 6.25 µg/mL) | 3.54 µM (≈ 6.25 µg/mL) | 7.08 µM (≈ 12.5 µg/mL) | 
